Laboratory results taken from patent publication US10561638B2, “Methods for treating dependence” (Biotie Therapies, Inc., priority 2007, dated 2020).
Entries after “also recorded” stand apart in the source; their conditions may differ.

How the values were obtained:
[1] = Pharmacokinetics and brain levels in rats; type: in vivo
Experimental: Male rats (Crl: CD BR Vaf+) weighing 180-220 g were fasted overnight before dosing and until 4 hr after dosing. Doses were formulated in water containing 2% 1-hydroxypropyl methylcellulose (50 centipoises viscosity), 1% benzyl alcohol, and 0.6% Tween 80 (all obtained from Sigma Chemical Company). Concentration of drug in the dose solutions was 5, 15, and 50 mg/ml for the 10, 30, and 100 mg/kg doses, respectively, and was verified by liquid chromatography (LC). The 5 mg/ml dose was a clear solution and the higher concentrations were a translucent suspension. Dose volumes were 2.0 ml/kg. At various times after dosing, samples of blood were obtained by cardiac puncture with heparinized syringes, and plasma was prepared by centrifugation. Brains of rats were surgically excised, and all samples were frozen at −20° C. until analysis.
Aliquots of plasma (0.05 or 0.5 ml) were mixed with internal standard (50 μl of methanol containing 5 μg/ml a monofluoro analog of nepicastat, and 5 mg/ml dithiothreitol). […] Concentrations of analytes were determined from a standard curve generated from the analysis of plasma from untreated rats fortified with known concentrations of analyte. Plasma concentration data are expressed as μg (free base) per ml. […]
Following addition of 100 μl of methanol to the aqueous phase (to disperse any emulsion), 100 μl aliquots were assayed by LC as described for plasma. Level in brain are expressed as μg (free base) per g of brain tissue.
Pharmacokinetic parameters were calculated from mean plasma concentrations. Plasma half-life (T1/2) was calculated as 0.693/β, where β is the elimination rate constant determined by linear regression of the log plasma concentration vs. time data within the terminal linear portion of the data. Areas under the plasma concentration vs. time curve (AUC) from zero to the time of the last quantifiable plasma concentrations were calculated by the trapezoidal rule. AUC from zero to infinity (AUCtotal 1 was calculated as: AUCtotal=AUC(0−Clast)+Clast/β where Clast is the last quantifiable plasma concentration.

[2] = tested on: mice; test: Clinical observations and behavioral tests in mice, single oral dose; type: in vivo
Experimental: A single oral dose of vehicle or nepicastat formulation was administered by gavage to each mouse using a rodent intubator. The oral route was selected because it is a proposed clinical route of administration. Dose volumes were calculated on the basis of individual body weights recorded before dosing (body weight data are not tabulated in this report). Food and water were withheld from the mice 2.5 to 3.5 hours before dosing, instead of 1.5 hours as specified in the protocol.
Clinical observations were recorded before dosing. Beginning 60 minutes after dosing, mice in each treatment group were evaluated in groups of up to 3 over an interval of approximately 10 minutes each for clinical observations and protocol-specified behavioral tests. One mouse in the 30-mg/kg group and 1 mouse in the 100-mg/kg group died after dosing and they were removed from the study. Surviving mice were euthanatized and removed from the study at the end of the observation/testing period.
[…] Clinical observations and behavioral tests were initiated 60 minutes after administration of the test formulation. At the end of the observation period, all surviving mice were euthanatized and removed from the study.

[3] = tested on: tissue noradrenaline and dopamine content; test: Tissue catecholamines in beagle dogs dosed b.i.d. for 5 days; type: in vivo; settings: for maximal increase in DA/NE ratio: 5 mg/kg b.i.d.; for decrease in noradrenaline / increase in dopamine: 5 mg/kg b.i.d. po
Experimental: Male beagle dogs (10-16 kg, Marshall Farms USA Inc, North Rose, N.Y., USA) were also used in in vivo studies. On the day of the study, dogs were weighed and randomly assigned to be orally dosed with either empty capsules (control) or the appropriate dose of nepicastat (0.05, 0.5, 1.5 or 5 mg·kg^−1; po, b.i.d.) for 5 days. At six hours following the first dose on day-5, the dogs were euthanized with pentobarbital and the tissues (cerebral cortex, renal artery, left ventricle) were rapidly harvested. The tissues were subsequently processed and analyzed for noradrenaline and dopamine.
Nepicastat was used in in vivo biochemical studies to study the effects in spontaneously hypertensive rats (SHRs) and normal beagle dogs. On the day of the study, the animals were weighed and randomly assigned to receive either placebo (vehicle) or the appropriate dose of nepicastat. Each rat was dosed orally three times, 12 h apart, beginning in the morning. At 6 h after the third dose, the rats were anesthetized with halothane, decapitated, and the tissues (cerebral cortex, mesenteric artery and left ventricle) were rapidly harvested, weighed, placed in iced 0.4 M perchloric acid, frozen in liquid nitrogen and stored at −70° C. until analysis. Tissue NE and DA concentrations were assayed by HPLC using electrochemical detection. Male beagle dogs (10-16 kg, Marshall Farms USA Inc, North Rose, N.Y.) were used in the study. On the day of the study, dogs were randomly assigned to receive either placebo (empty capsule) or the appropriate dose of nepicastat. Each dog was dosed twice a day for 4.5 days. 6 h after the first dose on day 5, the dogs were euthanized with pentobarbital and the tissues (cerebral cortex. renal artery, left ventricle) harvested, weighed, placed in iced 0.4 M perchloric acid, frozen in liquid nitrogen and stored at −70° C. until analysis. Tissue NE and DA concentrations were assayed by HPLC using electrochemical detection.

[4] = tested on: SHRs; test: 21 day daily treatment of SHRs, tail cuff and direct blood pressure; type: in vivo, spontaneously hypertensive rats
[5] = Pilot observation studies in rats, acute and repeated oral administration
Experimental: Similarly, in a separate study, physostigmine (1, 3, 10 or 30 mg/kg p.o.) or vehicle were administered acutely to groups of 8 rats.
In pilot studies of repeated administration, nepicastat (100 mg/kg p.o.) or vehicle was administered twice daily (06:00 and 18:00 h) for 10 days (once on day 11) to groups of 8 rats. The weights of the animals were monitored throughout the study and, on day 5, the animals were observed ‘blind’ by an independent observer in order to assess any overt behavioural/physiological effects following repeated administration. In a separate study, groups of 8 rats received vehicle or physostigmine (0.3, 1, 3 or 10 mg/kg p.o.) using the same dosing schedule. The weights of the animals were monitored throughout the study.

[6] = 30, 100, 300 mg/kg single oral dose

Cl.NCc1c[nH]c(=S)n1[C@H]1CCc2c(F)cc(F)cc2C1 [nepicastat, (S)-5-Aminomethyl-1-(5,7-difluoro-1,2,3,4-tetrahydronaphth-2-yl)-2,3-dihydro-2-thioxo-1H-imidazole hydrochloride]
plasma AUCtotal, higher in female than in male rats ([1]; 30 mg/kg oral): 77%
brain vs plasma concentrations ([1]; male rats, 10 mg/kg oral, from 2 hr onward, hydrochloride, 10 mg/kg): concentrations of nepicastat in brain exceeded those in plasma; also recorded: levels of nepicastat in brain were greater than in plasma
relationship between AUCtotal and dose ([1]; male rats, 10-100 mg/kg): linear
clinical or gross behavior changes [2, 6]: No treatment-related clinical or gross behavior changes
rectal body temperature vs vehicle-control [2, 6]: Lower body temperatures
gross motor behavior ([2]; acute 1.0-30 mg/kg p.o.): no significant effects on gross motor behavior
deaths after dosing ([2]; one mouse each at 30 and 100 mg/kg): the deaths were considered incidental
maximal increase in DA/NE ratio ([3]; cerebral cortex): 80 fold
decrease in noradrenaline ([3]; cerebral cortex): 96%
increase in dopamine ([3]; cerebral cortex): 166%
maximal increase in DA/NE ratio ([3]; left ventricle): 151 fold
decrease in noradrenaline ([3]; left ventricle): 91%
increase in dopamine ([3]; left ventricle): 700%
maximal increase in DA/NE ratio ([3]; renal artery): 95 fold
decrease in noradrenaline ([3]; renal artery): 88%
increase in dopamine ([3]; renal artery): 627%
doses at which catecholamine changes attained significance (p<0.05) ([3]; renal artery, left ventricle, cerebral cortex): ≥ 0.1 mg/kg/day
blood pressure measured directly via arterial cannulae, restrained ([4]; 10 mg/kg p.o.): significant antihypertensive effect
heart rate and systolic blood pressure by tail cuff ([4]; 1 and 10 mg/kg p.o., 21 days): did not alter heart rate, or systolic blood pressure
overt effects of repeated administration ([5]; nepicastat 100 mg/kg p.o. twice daily): no overt effects
irritability when handled ([5]; nepicastat 100 mg/kg p.o. twice daily, 11 days): more irritable than controls
mean loss in body weight ([5]; nepicastat 100 mg/kg p.o. twice daily, after 11 days): 28 g
overt behavioural/physiological changes ([5]; nepicastat 30 or 100 mg/kg p.o. acutely): did not induce any overt behavioural/physiological changes
